Data from PMC12250347, “Calcium-dependent pathway as a primary cause of hypoxic RGC damage in monkey retinal explants” (PLOS One, 2025).

Key:
[1] = biological target: T1, human recombinant cathepsin K (Homo sapiens, UniProt P43235); experiment: In vitro cathepsin inhibitory assay (Z-Phe-Arg-AMC fluorescence); type: biochemical; settings: 20 ng/mL cathepsin K, 20 µM Z-Phe-Arg-AMC, 15 min, 37°C, pH 5.5; mean of two experiments
T1 construct: purchased MilliporeSigma
T1 sequence (P43235 115-329): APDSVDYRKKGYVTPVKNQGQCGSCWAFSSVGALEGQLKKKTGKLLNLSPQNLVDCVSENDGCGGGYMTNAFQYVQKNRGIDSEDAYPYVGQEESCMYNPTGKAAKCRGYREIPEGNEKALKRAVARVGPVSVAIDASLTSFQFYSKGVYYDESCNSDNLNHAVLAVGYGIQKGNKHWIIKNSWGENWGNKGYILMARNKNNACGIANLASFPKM
Procedure: (§1) Cathepsins K, B, and L were selected because of their known roles in cell death and early release following lysosomal membrane permeabilization. The inhibitory activities of cathepsin inhibitors were assessed in vitro using human recombinant cathepsin K (MilliporeSigma), human liver cathepsin B (MilliporeSigma), and human liver cathepsin L (MilliporeSigma). Cathepsins and the cathepsin substrate, Z-Phe-Arg-AMC (PEPTIDE INSTITUTE, INC.), were dissolved in 50 mM sodium acetate buffer (pH 5.5) containing 2 mM dithiothreitol and 2 mM EDTA. A cathepsin K inhibitor, Odanacatib (Selleck Chemicals, Houston, TX, USA), and a cathepsin L inhibitor, SID26681509 (Bio-Techne Corporation), were dissolved in dimethyl sulfoxide (DMSO) (Nacalai Tesque, Kyoto, Japan) before use in the assay. The final concentration of DMSO in the reaction solution was 2%. The cathepsin substrate, 20 µM Z-Phe-Arg-AMC, was incubated for 15 min with 20 ng/mL cathepsin K, 15 ng/mL cathepsin B, or 50 ng/mL cathepsin L, with or without each inhibitor at a final concentration of 0.001 nM to 100 µM in 100 µL of mixed reaction solution in a 96-well plate at 37 °C. The fluorescence was measured using a microplate reader (GloMax Discover System; Promega). IC50 values from two independent experiments were averaged.

[2] = biological target: T2, human liver cathepsin L (Homo sapiens, UniProt P07711); experiment: as above; type: biochemical; settings: 50 ng/mL cathepsin L, 20 µM Z-Phe-Arg-AMC, 15 min, 37°C, pH 5.5; mean of two experiments
T2 construct: human liver cathepsin L (MilliporeSigma); purchased MilliporeSigma; host or cells: human liver
Procedure: as §1

[3] = biological target: T3, human liver cathepsin B (Homo sapiens, UniProt P07858); experiment: as above; type: biochemical; settings: 15 ng/mL cathepsin B, 20 µM Z-Phe-Arg-AMC, 15 min, 37°C, pH 5.5; mean of two experiments
T3 construct: human liver cathepsin B (MilliporeSigma); purchased MilliporeSigma; host or cells: human liver
Procedure: as §1

[4] = tested on: calpains 1 and 2 in monkey retinal lysate; experiment: In vitro inhibitory assay of calpains from retinal lysate (CaCl2, immunoblotting); type: biochemical; settings: non-cultured monkey retina lysate, 10 mM CaCl2, 2 hr, 37°C; inhibitor at 1, 10 and 100 µM
Procedure: Each retinal explant was sonicated in RIPA Lysis and Extraction Buffer (Thermo Fisher Scientific), with protease inhibitors cocktail (Complete Mini-EDTA-free; MilliporeSigma). Protein concentrations in lysates were measured by BCA assay (Pierce BCA Protein Assay Kit, Thermo Fisher Scientific) using bovine serum albumin as a standard. For immunoblotting, 5 μg of each sample was loaded and run on 4% to 12% gradient or 10% SDS-PAGE gels (NuPAGE Bis-Tris Protein Gels, Thermo Fisher Scientific) with 2-(N-morpholino)ethanesulfonic acid buffer or 3-(N-morpholino) propanesulfonic acid buffer (Thermo Fisher Scientific). Proteins were then electrotransferred to a polyvinylidene fluoride membrane (MilliporeSigma) at 100 V for 60 min or 1.5 hr. Membranes were then blocked with 5% skim milk in Tris-buffer saline (Bio-Rad Laboratories, Hercules, CA, USA) containing 0.05% Tween 20. Each membrane was probed with primary antibodies against α-spectrin (1:2000 dilution, Enzo Life Sciences, Farmingdale, NY, USA), SBDP150 (1:1000 dilution, Senju Pharmaceutical), calpain 1 (1:1000 dilution, Thermo Fisher Scientific), calpain 2 (1:500, GeneTex, Irvine, CA, USA), cathepsin K (1:500 dilution, Abcam), and β-actin (1:1000 dilution, Merck). For calpain 1, immunoreactivity was visualized using a secondary antibody conjugated to alkaline phosphatase and the AP Conjugate Substrate Kit (Bio-Rad Laboratories). For other proteins, immunoreactivities were visualized using secondary antibodies conjugated with rabbit (Santa Cruz Biotechnology) or mouse horseradish peroxidase enzyme (Cytiva, Wilmington, DE, USA) and ECL Plus detection reagents (Cytiva). Images of the membranes were captured with FluorChem FC2 imager (Cell Biosciences, Santa Clara, CA, USA). The conversion of pro-cathepsin K (38 kDa) to its mature form (27 kDa) was used as an indicator of cathepsin K activation.
To confirm the isozyme specificities of calpain inhibitors in vitro, non-cultured monkey retinas were sonicated in a buffer containing 20 mM Tris (pH 7.5), 5 mM EGTA, 5 mM EDTA, 2 mM DTE. […]

[5] = tested on: RGCs in monkey retinal explants; parameters: method as in PMID 26393472, PMID 33156340; settings: human and monkey retinal explants treated with hypoxia; cited from earlier work
[6] = tested on: calpain 1 activation and proteolysis of α-spectrin; parameters: method as in PMID 26393472; settings: immunoblotting of hypoxic retinal explants; cited from earlier work

T2 sequence (P07711 114-333): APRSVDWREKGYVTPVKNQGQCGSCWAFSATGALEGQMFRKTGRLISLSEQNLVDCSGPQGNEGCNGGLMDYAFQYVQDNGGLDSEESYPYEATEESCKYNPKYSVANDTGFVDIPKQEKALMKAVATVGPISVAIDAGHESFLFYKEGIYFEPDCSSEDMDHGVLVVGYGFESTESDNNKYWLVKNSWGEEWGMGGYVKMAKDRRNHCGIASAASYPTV

SMILES	IC50 [1]	IC50 [2]	IC50 [3]	Effect on calcium-induced activation (autolysis) of calpains 1 and 2 and SBDP150 in retinal lysate [4]	Effect on RGC damage in hypoxic retinal explants [5]	Effect on autolysis of calpain 1 in hypoxic retinal explants [6]	Effect on autolysis of calpain 2 in hypoxic retinal explants [6]
CC(C)(F)C[C@H](N[C@@H](c1ccc(-c2ccc(S(C)(=O)=O)cc2)cc1)C(F)(F)F)C(=O)NC1(C#N)CC1 [Odanacatib]	0.28 nM	5130 nM	167 nM	–	–	–	–
CCc1ccccc1NC(=O)CSC(=O)NNC(=O)[C@H](Cc1c[nH]c2ccccc12)NC(=O)OC(C)(C)C [SID26681509]	1520 nM	60 nM	495 nM	–	–	–	–
COCCOCCOC(=O)N[C@@H](CC(C)C)C(=O)N[C@@H](Cc1ccccc1)C(=O)C(=O)NC1CC1 [SNJ-1945]	–	–	–	inhibited the activation of both calpain 1 and calpain 2 in a dose-dependent manner	partially inhibited RGC damage	inhibited the autolysis of calpain 1	did not affect
